Results: ChEMBL document CHEMBL1201862, “PubChem BioAssay data set” (2004)
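How tested: cells in 96-well plates exposed to compound for 48 hours at five concentrations. GI50 is the concentration that inhibits growth by half.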 Activity calls are given as the source filed them. No stated cut-off is given here; in the data, active = GI50 up to about 1.1 µM and inactive = higher.

Assays:
Assay in all cases: NCI tumour cell line growth inhibition, 48 h
SF-295 = test system: SF-295
SF-268 = test system: SF-268
DLD-1 = test system: DLD-1
EKVX = test system: EKVX
A498 = test system: A498
COLO 205 = test system: COLO 205
SK-MEL-28 = test system: SK-MEL-28
OVCAR-4 = test system: OVCAR-4
K562 = test system: K562
SK-MEL-2 = test system: SK-MEL-2
SF-539 = test system: SF-539
MOLT-4 = test system: MOLT-4
HOP-62 = test system: HOP-62
UACC-257 = test system: UACC-257
SNB-75 = test system: SNB-75
RPMI-8226 = test system: RPMI-8226

Measured: GI50

Fc1ccc(C2SCc3nc4ccccc4n32)cc1Cl (stereo not drawn)
inactive: SF-295 26.5 µM | SF-268 33.6 µM | DLD-1 23 µM | EKVX 24.3 µM | A498 33.7 µM | COLO 205 15.3 µM | SK-MEL-28 24.7 µM | OVCAR-4 20 µM | K562 16.5 µM | SK-MEL-2 > 10 µM | SF-539 18.7 µM | MOLT-4 23.2 µM | HOP-62 15.5 µM | UACC-257 22.8 µM

O=C(N/C(=C\c1ccc(/C=C(\NC(=O)c2ccccc2)c2nc3ccccc3[nH]2)cc1)c1nc2ccccc2[nH]1)c1ccccc1
inactive: SF-295 > 100 µM | SF-268 > 100 µM | DLD-1 > 100 µM | EKVX > 100 µM | A498 > 100 µM | COLO 205 > 100 µM | SK-MEL-28 > 100 µM | SNB-75 > 100 µM | OVCAR-4 > 100 µM | K562 > 100 µM | SK-MEL-2 > 100 µM | SF-539 > 100 µM | MOLT-4 > 100 µM | RPMI-8226 > 100 µM | HOP-62 > 100 µM | UACC-257 > 100 µM

COc1cc(CCc2ccncc2)cc(OC)c1OC
inactive: SF-295 > 100 µM | SF-268 > 100 µM | DLD-1 > 100 µM | EKVX > 100 µM | A498 > 100 µM | COLO 205 > 100 µM | SK-MEL-28 > 100 µM | SNB-75 > 100 µM | OVCAR-4 > 100 µM | K562 > 100 µM | SF-539 > 100 µM | MOLT-4 > 100 µM | RPMI-8226 > 100 µM | HOP-62 > 100 µM | UACC-257 > 100 µM

N/N=C(\CCN1CCCC1)CC(c1ccccc1)c1c(O)c2ccccc2oc1=O (stereo not drawn)
inactive: SF-295 > 100 µM | SF-268 > 100 µM | DLD-1 > 100 µM | EKVX 44.2 µM | COLO 205 > 100 µM | SK-MEL-28 > 100 µM | SNB-75 45.3 µM | OVCAR-4 > 100 µM | K562 > 100 µM | SK-MEL-2 > 100 µM | SF-539 > 100 µM | MOLT-4 > 100 µM | RPMI-8226 > 100 µM | HOP-62 > 100 µM | UACC-257 > 100 µM

Cc1nc2ccccc2[s+]c1-c1cnc(NC#N)nc1C(=O)Nc1cccc(Cl)c1
inactive: SF-295 > 100 µM | SF-268 > 100 µM | DLD-1 > 100 µM | EKVX > 100 µM | A498 > 100 µM | COLO 205 > 100 µM | SK-MEL-28 > 100 µM | SNB-75 > 100 µM | OVCAR-4 > 100 µM | K562 > 100 µM | SK-MEL-2 > 100 µM | SF-539 > 100 µM | MOLT-4 > 100 µM | RPMI-8226 > 100 µM | HOP-62 > 100 µM | UACC-257 > 100 µM

COc1cc2c(cc1OC)C1Cc3cc(OC)c(OC)cc3N1CC2 (stereo not drawn)
inactive: SF-295 33.8 µM | SF-268 35 µM | DLD-1 39.8 µM | EKVX 27.7 µM | A498 40.5 µM | COLO 205 20.5 µM | SK-MEL-28 32.1 µM | SNB-75 21.4 µM | OVCAR-4 18.9 µM | K562 27.5 µM | SK-MEL-2 52.4 µM | MOLT-4 30.8 µM | RPMI-8226 28.8 µM | HOP-62 27.6 µM | UACC-257 42 µM

N#CC(C(=O)C(=O)C(C#N)c1ccc(Br)cc1)c1ccc(Br)cc1 (stereo not drawn)
inactive: SF-295 13.6 µM | SF-268 10.5 µM | DLD-1 14.3 µM | EKVX 12 µM | A498 15.8 µM | COLO 205 16.5 µM | SK-MEL-28 14.6 µM | SNB-75 5.13 µM | OVCAR-4 12.3 µM | K562 12.6 µM | SK-MEL-2 13.9 µM | SF-539 15.5 µM | MOLT-4 4.4 µM | RPMI-8226 4.65 µM | HOP-62 13.2 µM | UACC-257 11.9 µM

CN(C)CCC(/C=C/c1ccccc1)=N\Nc1ccc(Cl)c(Cl)c1
inactive: SF-295 3.78 µM | SF-268 2.56 µM | DLD-1 3.49 µM | EKVX 3.66 µM | A498 4.63 µM | COLO 205 2.6 µM | SK-MEL-28 9.33 µM | SNB-75 2.27 µM | OVCAR-4 3.56 µM | K562 2.23 µM | SK-MEL-2 2.49 µM | SF-539 2.2 µM | MOLT-4 2.44 µM | RPMI-8226 3.44 µM | HOP-62 3.15 µM | UACC-257 3.33 µM

O=S(=O)(N/N=C/c1ccc(Cl)cc1Cl)c1ccccc1
inactive: SF-295 > 100 µM | SF-268 63.1 µM | DLD-1 > 100 µM | EKVX > 100 µM | A498 > 100 µM | COLO 205 62.4 µM | SK-MEL-28 67.8 µM | SNB-75 83 µM | OVCAR-4 > 100 µM | K562 59 µM | SK-MEL-2 > 100 µM | SF-539 77.1 µM | MOLT-4 34.7 µM | RPMI-8226 84.7 µM | HOP-62 > 100 µM | UACC-257 > 100 µM

Cc1ccc(S(=O)(=O)OC2CS[S+]([O-])CC2OS(=O)(=O)c2ccc(C)cc2)cc1 (stereo not drawn)
inactive: SF-295 15.7 µM | SF-268 17 µM | DLD-1 9.27 µM | EKVX 21.1 µM | A498 16.1 µM | COLO 205 11.8 µM | SK-MEL-28 15.6 µM | SNB-75 20.6 µM | OVCAR-4 15.6 µM | K562 4.02 µM | SF-539 15.2 µM | MOLT-4 2.23 µM | RPMI-8226 5.74 µM | HOP-62 20.8 µM | UACC-257 14.6 µM

C=C(C(=C)P(=S)(C(C)C)C(C)C)P(=S)(C(C)C)C(C)C
inactive: SF-295 > 100 µM | SF-268 > 100 µM | DLD-1 > 100 µM | EKVX > 100 µM | A498 > 100 µM | COLO 205 > 100 µM | SK-MEL-28 > 100 µM | SNB-75 > 100 µM | OVCAR-4 > 100 µM | K562 > 100 µM | SF-539 > 100 µM | MOLT-4 > 100 µM | RPMI-8226 > 100 µM | HOP-62 > 100 µM | UACC-257 > 100 µM

CC(C)c1ccccc1NC(=O)CCc1n[nH]c(=S)o1
inactive: SF-295 > 100 µM | SF-268 > 100 µM | DLD-1 > 54.5 µM | EKVX > 100 µM | A498 > 100 µM | COLO 205 27.2 µM | SK-MEL-28 > 100 µM | SNB-75 > 66.4 µM | OVCAR-4 > 100 µM | K562 > 50.7 µM | SF-539 72.3 µM | MOLT-4 > 100 µM | RPMI-8226 > 48.9 µM | HOP-62 > 100 µM | UACC-257 > 100 µM

O=C(/C=C/c1ccc(Cl)cc1)c1ccncc1
inactive: SF-295 47.1 µM | SF-268 85.9 µM | DLD-1 41 µM | EKVX 64.4 µM | A498 27 µM | COLO 205 > 100 µM | SK-MEL-28 52.6 µM | SNB-75 22.1 µM | OVCAR-4 22.5 µM | K562 52.2 µM | SK-MEL-2 > 100 µM | SF-539 25.9 µM | MOLT-4 27 µM | RPMI-8226 89.3 µM | HOP-62 98.9 µM | UACC-257 43.5 µM

COC(=O)C1=C(O)c2cc(-c3ccccc3)c(-c3ccccc3)c(C#N)c2NC(=O)C1
inactive: SF-295 3.54 µM | DLD-1 6.3 µM | EKVX > 100 µM | A498 33.9 µM | COLO 205 6.08 µM | SK-MEL-28 34.5 µM | SNB-75 16.8 µM | OVCAR-4 27.2 µM | K562 3.27 µM | SK-MEL-2 40.8 µM | SF-539 7.33 µM | MOLT-4 2.46 µM | HOP-62 20.4 µM | UACC-257 91.8 µM

CSC(C1c2ccccc2N(c2ccc(C)cc2)C2=NC(=O)N(C)C(=O)C21Cl)S(=O)(=O)c1ccc(C)cc1 (stereo not drawn)
inactive: SF-295 24.2 µM | SF-268 23.6 µM | DLD-1 16.3 µM | EKVX 35.4 µM | A498 33 µM | COLO 205 19.3 µM | SK-MEL-28 21 µM | SNB-75 23 µM | OVCAR-4 17.9 µM | K562 19.1 µM | SK-MEL-2 18.8 µM | SF-539 17.5 µM | MOLT-4 6.08 µM | RPMI-8226 16 µM | HOP-62 20.7 µM | UACC-257 23.7 µM

Cc1cc2c(C)n[nH]c2c(C(=O)O)c1C
inactive: SF-295 > 100 µM | DLD-1 > 100 µM | EKVX > 100 µM | A498 > 100 µM | COLO 205 > 100 µM | SK-MEL-28 > 100 µM | SNB-75 > 100 µM | OVCAR-4 51.6 µM | K562 > 100 µM | SK-MEL-2 > 100 µM | SF-539 > 100 µM | MOLT-4 > 100 µM | RPMI-8226 > 100 µM | HOP-62 > 100 µM | UACC-257 > 100 µM

C/C(CC(=O)Nc1ccccc1)=N\NC(N)=S
inactive: SF-295 > 100 µM | SF-268 > 100 µM | DLD-1 > 100 µM | EKVX > 100 µM | COLO 205 > 100 µM | SK-MEL-28 > 100 µM | SNB-75 > 100 µM | K562 > 100 µM | SK-MEL-2 > 100 µM | SF-539 > 100 µM | MOLT-4 > 100 µM | RPMI-8226 > 100 µM | HOP-62 > 100 µM | UACC-257 > 100 µM

O=C(CC1(O)C(=O)Nc2c(Cl)ccc(Cl)c21)c1ccc(Cl)cc1 (stereo not drawn)
inactive: SF-295 34.5 µM | SF-268 37 µM | DLD-1 38 µM | EKVX 95.3 µM | A498 38.4 µM | COLO 205 18.6 µM | SK-MEL-28 53.7 µM | SNB-75 26.6 µM | OVCAR-4 25.7 µM | SK-MEL-2 25.2 µM | SF-539 24.8 µM | RPMI-8226 21 µM | HOP-62 32 µM | UACC-257 29.9 µM
